Results published in ChEMBL document CHEMBL1201862, “PubChem BioAssay data set” (2004).
Active and inactive are the calls of the source.

What was measured:
[1] = molecular target: Mothers against decapentaplegic homolog 3 (Homo sapiens, UniProt P84022); assay: inhibitors of SMAD-driven TGF-beta signaling – dose response (AID 715); assay type: functional
[2] = molecular target: 26S proteasome non-ATPase regulatory subunit 14 (Homo sapiens, UniProt O00487); assay: inhibition of proteasome subunit RPN11 – biochemical, fluorescence polarization, uHTS hits, confirmation (AID 602368); assay type: functional
[3] = molecular target: Protein-tyrosine kinase 2-beta (Homo sapiens, UniProt Q14289);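 also: potency of inhibitors of PYK2 kinase phosphorylation of poly-GT substrate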
[4] = molecular target: Prothrombin (Bos taurus, UniProt P00735); assay: thrombin protease inhibitors – biochemical, fluorescence polarization, uHTS hits, dose response (AID 602369); assay type: functional
[5] = molecular target: 72 kDa type IV collagenase (Homo sapiens, UniProt P08253); assay: Dose Response validation of uHTS RPN11 inhibitor hits using a MMP-2 Fluorescence assay.; assay type: functional
[6] = molecular target: Cytochrome P450 2C9 (Homo sapiens, UniProt P11712); conditions: Potency
[7] = molecular target: Cytochrome P450 2D6 (Homo sapiens, UniProt P10635); assay: qHTS Assay for Inhibitors and Substrates of Cytochrome P450 2D6. [Related pubchem assays: 410 ]; assay type: ADME; conditions: read-out: Potency
[8] = molecular target: Protein Rev (Human immunodeficiency virus type 1 group M subtype B (isolate WMJ22)(HIV-1), UniProt P05866); assay: inhibitors of Rev protein–RRE RNA complex – biochemical, protein-RNA interaction, dose response (AID 842); design: species or system Human immunodeficiency virus 1
[9] = molecular target: T1, Microphthalmia-associated transcription factor (Homo sapiens, UniProt O75030); assay: reducers of TRPM1 reporter luminescence, concentration series – cell-based, SK-MEL-5, cherry-picked, set 3, MITF inhibitor project, dose response (AID 493073); assay type: functional;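 also: SK-MEL-5 melanoma cells with luciferase driven by the MITF target TRPM1 promoter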
T1 sequence (O75030 whole entry): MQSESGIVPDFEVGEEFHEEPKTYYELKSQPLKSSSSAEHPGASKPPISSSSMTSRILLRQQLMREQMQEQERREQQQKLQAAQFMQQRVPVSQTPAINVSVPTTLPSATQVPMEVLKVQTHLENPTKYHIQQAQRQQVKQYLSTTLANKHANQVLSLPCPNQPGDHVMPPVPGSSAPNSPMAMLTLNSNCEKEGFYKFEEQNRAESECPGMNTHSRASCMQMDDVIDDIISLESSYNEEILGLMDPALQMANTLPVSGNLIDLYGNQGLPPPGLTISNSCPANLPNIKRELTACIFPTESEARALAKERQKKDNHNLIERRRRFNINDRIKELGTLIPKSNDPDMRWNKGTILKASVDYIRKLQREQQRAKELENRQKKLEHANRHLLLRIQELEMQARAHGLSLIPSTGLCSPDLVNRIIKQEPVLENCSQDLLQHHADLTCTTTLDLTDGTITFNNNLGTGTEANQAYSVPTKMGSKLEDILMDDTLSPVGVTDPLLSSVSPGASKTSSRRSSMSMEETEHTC

[10] = molecular target: T2, Streptokinase A (Streptococcus pyogenes serotype M1, UniProt P10520); assay: viability-normalized secreted streptokinase activity reduction – plasminogen activation absorbance, OD405, dose response (AID 1914); assay type: functional, Streptococcus pyogenes M1 GAS;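 also: secreted streptokinase activity via plasminogen activation per viability signal from cell pellet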
T2 sequence (P10520 whole entry): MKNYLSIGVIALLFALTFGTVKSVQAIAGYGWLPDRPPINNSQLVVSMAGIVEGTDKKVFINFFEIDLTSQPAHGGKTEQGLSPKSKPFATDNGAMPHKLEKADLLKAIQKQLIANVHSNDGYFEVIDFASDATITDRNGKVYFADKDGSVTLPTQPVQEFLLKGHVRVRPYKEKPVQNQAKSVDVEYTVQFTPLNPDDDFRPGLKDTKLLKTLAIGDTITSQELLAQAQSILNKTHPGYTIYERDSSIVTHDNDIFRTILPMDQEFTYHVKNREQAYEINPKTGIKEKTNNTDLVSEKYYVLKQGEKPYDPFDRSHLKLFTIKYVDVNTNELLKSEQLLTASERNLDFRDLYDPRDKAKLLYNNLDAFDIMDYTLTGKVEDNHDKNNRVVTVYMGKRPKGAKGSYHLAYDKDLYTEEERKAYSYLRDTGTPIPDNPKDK

[11] = system: Streptococcus sp. 'group A'; assay: Streptococcus pyogenes SK(-)GAS viability under kanamycin – luminescence, BacTiterGlo, confirmation, counter-screen for streptokinase expression inhibitor project, dose response (AID 1900); assay type: functional, organism-based
[12] = CCR5-tropic HIV-1 fusion blockers – cell-based, CCR5-tropic Env, dose response (AID 2279); assay type: functional
[13] = system: Streptococcus; assay: GAS UMAA2166 growth inhibition – luminescence, BacTiterGlo, counter-screen for streptokinase expression inhibitor project, dose response (AID 1915); assay type: functional, organism-based;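 also: potency for reduction of bacterial viability or growth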
[14] = molecular target: T3, Mannose-6-phosphate isomerase (Homo sapiens, UniProt P34949); assay: MPI enzyme activity inhibition – biochemical, fluorescence intensity, coupled assay, primary screen (AID 1209)
T3 sequence (P34949 whole entry): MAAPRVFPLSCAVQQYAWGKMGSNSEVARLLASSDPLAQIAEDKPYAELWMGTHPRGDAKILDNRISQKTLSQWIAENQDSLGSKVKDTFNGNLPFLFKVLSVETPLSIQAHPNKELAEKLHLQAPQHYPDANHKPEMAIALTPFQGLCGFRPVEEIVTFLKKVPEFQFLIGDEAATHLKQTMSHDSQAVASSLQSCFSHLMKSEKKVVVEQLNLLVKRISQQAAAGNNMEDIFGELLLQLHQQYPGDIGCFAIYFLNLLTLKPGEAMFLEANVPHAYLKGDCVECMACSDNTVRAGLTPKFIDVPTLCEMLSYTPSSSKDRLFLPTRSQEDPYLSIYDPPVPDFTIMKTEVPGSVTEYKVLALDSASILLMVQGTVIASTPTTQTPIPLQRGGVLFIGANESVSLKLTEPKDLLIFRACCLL

[15] = molecular target: Cytochrome P450 3A4 (Homo sapiens, UniProt P08684);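 also: CYP3A4 tested as one member of a cytochrome P450 panel screen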
[16] = molecular target: Endoplasmic reticulum aminopeptidase 1 (Homo sapiens, UniProt Q9NZ08); assay: inhibition of human ERAP1 enzyme activity – biochemical, cherry-pick, set 2, plate reader, dose response (AID 743314)
[17] = molecular target: Large T antigen (Simian virus 40, UniProt P03070); assay type: functional, Betapolyomavirus macacae;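 also: Confirmatory-stage PubChem screen for compounds that inhibit SV40 T antigen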
[18] = molecular target: T3, Mannose-6-phosphate isomerase; assay: MPI inhibition at elevated mannose 6-phosphate – biochemical, fluorescence intensity, high mannose 6-phosphate, primary screen (AID 1220)
[19] = molecular target: T4, Cytochrome P450 1A2 (Homo sapiens, UniProt P05177);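 also: PubChem cytochrome P450 panel assay, CYP1A2 panel member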
T4 sequence (P05177 whole entry): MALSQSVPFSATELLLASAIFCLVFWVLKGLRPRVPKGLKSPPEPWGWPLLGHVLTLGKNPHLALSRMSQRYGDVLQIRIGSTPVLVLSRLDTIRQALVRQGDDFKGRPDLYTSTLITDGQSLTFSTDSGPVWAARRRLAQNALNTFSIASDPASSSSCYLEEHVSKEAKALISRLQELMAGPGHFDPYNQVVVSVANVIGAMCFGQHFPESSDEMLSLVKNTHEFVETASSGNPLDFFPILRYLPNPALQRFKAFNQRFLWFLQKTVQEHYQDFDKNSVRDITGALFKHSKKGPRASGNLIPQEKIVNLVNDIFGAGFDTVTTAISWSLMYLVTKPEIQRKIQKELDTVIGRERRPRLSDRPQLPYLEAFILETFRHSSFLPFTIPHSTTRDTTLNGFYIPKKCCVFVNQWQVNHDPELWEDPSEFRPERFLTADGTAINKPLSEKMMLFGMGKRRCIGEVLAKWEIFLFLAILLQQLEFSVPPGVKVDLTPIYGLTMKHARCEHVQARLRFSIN

Sequence of Protein Rev (P05866 whole entry): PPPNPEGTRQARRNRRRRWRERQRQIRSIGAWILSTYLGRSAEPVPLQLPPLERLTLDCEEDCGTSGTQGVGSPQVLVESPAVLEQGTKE
Sequence of 72 kDa type IV collagenase (P08253 whole entry): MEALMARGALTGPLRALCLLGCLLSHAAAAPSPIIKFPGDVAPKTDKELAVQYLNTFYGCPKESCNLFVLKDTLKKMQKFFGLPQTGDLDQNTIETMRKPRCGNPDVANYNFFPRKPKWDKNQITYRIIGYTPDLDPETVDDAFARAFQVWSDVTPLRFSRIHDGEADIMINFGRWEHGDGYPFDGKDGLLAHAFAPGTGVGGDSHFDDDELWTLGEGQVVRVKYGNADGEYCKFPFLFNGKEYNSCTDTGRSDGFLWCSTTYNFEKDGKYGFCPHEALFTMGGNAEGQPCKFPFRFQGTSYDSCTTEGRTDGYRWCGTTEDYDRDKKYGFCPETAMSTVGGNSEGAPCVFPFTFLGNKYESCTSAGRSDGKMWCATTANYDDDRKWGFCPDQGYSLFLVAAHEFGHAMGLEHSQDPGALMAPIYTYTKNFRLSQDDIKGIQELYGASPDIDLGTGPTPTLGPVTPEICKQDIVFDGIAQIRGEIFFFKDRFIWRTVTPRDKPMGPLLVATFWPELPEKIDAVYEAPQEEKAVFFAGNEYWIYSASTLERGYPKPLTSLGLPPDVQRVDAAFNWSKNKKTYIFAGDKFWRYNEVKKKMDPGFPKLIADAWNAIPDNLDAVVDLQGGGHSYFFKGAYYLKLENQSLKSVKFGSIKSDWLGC
Sequence of Cytochrome P450 3A4 (P08684 whole entry): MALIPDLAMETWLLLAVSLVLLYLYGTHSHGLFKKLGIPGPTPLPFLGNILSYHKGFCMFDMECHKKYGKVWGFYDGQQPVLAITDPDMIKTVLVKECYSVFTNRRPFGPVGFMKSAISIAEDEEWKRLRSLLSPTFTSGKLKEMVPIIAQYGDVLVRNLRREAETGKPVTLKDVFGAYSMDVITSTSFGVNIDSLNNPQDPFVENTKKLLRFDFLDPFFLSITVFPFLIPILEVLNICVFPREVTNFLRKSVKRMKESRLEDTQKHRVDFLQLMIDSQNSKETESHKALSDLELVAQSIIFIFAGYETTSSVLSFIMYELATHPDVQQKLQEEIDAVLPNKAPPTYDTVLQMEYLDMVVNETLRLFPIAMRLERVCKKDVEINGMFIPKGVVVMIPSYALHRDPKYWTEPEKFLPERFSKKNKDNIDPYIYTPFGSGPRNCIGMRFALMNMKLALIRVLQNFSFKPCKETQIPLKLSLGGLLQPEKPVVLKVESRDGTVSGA
Sequence of 26S proteasome non-ATPase regulatory subunit 14 (O00487 whole entry): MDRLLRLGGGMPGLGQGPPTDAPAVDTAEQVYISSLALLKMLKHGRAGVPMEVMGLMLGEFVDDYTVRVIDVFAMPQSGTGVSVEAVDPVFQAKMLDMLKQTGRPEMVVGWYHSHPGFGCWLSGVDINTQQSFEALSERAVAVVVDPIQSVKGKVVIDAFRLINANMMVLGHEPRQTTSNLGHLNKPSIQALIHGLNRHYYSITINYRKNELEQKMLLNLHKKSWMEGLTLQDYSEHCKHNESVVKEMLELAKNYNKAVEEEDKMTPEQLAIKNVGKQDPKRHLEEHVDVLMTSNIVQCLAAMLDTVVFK
Sequence of Cytochrome P450 2D6 (P10635 whole entry): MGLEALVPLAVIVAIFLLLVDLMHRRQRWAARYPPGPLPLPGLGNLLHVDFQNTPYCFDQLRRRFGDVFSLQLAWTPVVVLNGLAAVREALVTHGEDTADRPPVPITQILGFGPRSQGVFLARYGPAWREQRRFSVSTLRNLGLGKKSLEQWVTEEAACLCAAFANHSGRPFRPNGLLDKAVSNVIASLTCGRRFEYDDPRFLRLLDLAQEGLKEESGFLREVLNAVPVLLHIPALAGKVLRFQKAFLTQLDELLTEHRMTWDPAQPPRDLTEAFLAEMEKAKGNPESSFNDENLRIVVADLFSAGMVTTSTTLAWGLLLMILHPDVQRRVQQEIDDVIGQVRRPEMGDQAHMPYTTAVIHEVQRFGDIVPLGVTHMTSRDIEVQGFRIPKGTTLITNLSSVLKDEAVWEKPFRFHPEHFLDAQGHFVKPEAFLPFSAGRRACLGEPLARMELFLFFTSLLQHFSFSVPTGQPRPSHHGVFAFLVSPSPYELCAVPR
Sequence of Cytochrome P450 2C9 (P11712 whole entry): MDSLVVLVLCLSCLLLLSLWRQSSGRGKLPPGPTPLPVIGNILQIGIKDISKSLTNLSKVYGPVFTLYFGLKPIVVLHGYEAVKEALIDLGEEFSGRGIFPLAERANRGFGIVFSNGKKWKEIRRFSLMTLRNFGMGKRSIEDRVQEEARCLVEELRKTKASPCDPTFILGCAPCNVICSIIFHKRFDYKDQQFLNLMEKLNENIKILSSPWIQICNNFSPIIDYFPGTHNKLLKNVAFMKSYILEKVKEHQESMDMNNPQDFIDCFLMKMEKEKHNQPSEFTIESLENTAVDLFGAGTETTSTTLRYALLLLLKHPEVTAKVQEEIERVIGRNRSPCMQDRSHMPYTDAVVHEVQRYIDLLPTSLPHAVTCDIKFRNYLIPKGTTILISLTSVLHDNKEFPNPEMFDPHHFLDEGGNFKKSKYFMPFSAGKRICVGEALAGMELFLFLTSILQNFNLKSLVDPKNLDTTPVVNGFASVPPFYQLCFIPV
Sequence of Large T antigen (P03070 whole entry): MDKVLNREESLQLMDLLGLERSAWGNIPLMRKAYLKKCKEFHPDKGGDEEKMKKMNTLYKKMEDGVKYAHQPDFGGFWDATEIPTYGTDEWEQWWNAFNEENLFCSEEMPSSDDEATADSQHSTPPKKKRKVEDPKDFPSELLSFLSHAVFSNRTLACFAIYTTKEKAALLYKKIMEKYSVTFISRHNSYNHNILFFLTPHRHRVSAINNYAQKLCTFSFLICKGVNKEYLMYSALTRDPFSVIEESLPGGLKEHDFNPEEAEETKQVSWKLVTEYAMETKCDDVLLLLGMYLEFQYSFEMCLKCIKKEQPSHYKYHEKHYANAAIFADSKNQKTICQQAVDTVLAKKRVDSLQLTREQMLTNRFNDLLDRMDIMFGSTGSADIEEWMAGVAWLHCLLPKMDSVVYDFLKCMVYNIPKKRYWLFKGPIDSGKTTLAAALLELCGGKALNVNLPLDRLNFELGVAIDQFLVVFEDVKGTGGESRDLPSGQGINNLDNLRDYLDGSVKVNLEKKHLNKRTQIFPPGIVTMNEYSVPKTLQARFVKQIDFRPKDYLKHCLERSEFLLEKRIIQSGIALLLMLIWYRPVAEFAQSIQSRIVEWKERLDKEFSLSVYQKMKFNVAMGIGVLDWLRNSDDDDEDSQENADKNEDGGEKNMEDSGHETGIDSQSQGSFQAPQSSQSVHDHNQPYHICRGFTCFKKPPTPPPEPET
Sequence of Mothers against decapentaplegic homolog 3 (P84022 whole entry): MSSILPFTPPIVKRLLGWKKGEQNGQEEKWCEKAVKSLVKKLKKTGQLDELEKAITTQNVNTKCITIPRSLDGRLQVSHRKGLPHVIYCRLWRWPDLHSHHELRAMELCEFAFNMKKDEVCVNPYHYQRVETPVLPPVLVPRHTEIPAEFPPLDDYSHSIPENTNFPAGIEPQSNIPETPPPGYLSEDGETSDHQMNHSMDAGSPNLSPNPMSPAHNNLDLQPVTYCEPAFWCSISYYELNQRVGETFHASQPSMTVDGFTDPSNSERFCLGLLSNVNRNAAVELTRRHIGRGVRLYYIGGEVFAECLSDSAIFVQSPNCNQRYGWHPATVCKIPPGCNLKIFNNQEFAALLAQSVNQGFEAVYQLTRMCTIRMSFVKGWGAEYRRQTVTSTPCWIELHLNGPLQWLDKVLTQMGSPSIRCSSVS
Sequence of Endoplasmic reticulum aminopeptidase 1 (Q9NZ08 whole entry): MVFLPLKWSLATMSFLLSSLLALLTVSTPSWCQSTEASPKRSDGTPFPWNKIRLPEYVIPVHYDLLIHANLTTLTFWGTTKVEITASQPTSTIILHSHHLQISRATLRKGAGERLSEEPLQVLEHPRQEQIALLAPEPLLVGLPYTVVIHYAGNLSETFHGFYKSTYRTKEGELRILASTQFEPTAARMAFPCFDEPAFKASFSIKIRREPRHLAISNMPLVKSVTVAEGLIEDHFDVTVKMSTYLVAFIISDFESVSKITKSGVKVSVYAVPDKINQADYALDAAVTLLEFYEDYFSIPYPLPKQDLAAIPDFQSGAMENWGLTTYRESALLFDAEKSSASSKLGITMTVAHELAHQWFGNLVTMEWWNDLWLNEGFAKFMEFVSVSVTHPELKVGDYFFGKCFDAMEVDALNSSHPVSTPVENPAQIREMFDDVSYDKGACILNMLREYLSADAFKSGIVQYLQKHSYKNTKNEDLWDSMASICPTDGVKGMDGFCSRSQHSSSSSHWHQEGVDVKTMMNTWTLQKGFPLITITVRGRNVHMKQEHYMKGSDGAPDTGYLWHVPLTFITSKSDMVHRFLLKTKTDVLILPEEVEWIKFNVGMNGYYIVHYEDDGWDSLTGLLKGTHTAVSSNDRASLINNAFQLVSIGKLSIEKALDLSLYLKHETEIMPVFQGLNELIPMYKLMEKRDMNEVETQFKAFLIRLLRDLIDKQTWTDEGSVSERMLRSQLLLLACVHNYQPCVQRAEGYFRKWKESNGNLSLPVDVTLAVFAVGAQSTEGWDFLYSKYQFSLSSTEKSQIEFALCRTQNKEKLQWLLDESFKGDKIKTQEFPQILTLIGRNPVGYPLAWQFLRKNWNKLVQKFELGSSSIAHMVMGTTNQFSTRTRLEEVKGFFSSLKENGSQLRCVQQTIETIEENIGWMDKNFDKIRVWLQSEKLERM

**Q.** For O=C(NCCCN1CCCCCC1)c1ccc(CS(=O)(=O)Cc2ccccc2F)o1, which IC50 [1] is on record?
**A.** 4.1 µM (active)

**Q.** And the IC50 [2]?
**A.** 7.28 µM (active)

**Q.** And the IC50 [3]?
**A.** 13.1 µM (not active)

**Q.** What about the IC50 [4] of the same molecule?
**A.** 68.8 µM (active)

**Q.** And the IC50 [5]?
**A.** > 100 µM (inactive)

**Q.** Which AC50 [6] does the source give for CC[C@H](C)C(=O)O[C@@H]1CCC=C2C=C[C@H](C)[C@@H](CC[C@H]3C[C@@H](O)CC(=O)O3)[C@H]21 here?
**A.** 39.8 µM (inconclusive)

**Q.** For COc1ccc(C[C@@H]2NC[C@H](O)[C@H]2OC(C)=O)cc1, which AC50 [7] is on record?
**A.** 20 µM (inconclusive)

**Q.** With CC(C)CN=c1cc(-c2ccccc2)oc2ccc(Cl)cc12 as the molecule, how does the IC50 [8] read?
**A.** > 79.4 µM (not active)

**Q.** For CCOc1cc(/C=N/Nc2cccc(C(=O)O)c2)ccc1OC(=O)c1ccccc1, which AC50 [9] is on record?
**A.** 1.38 µM (active)

**Q.** What about the EC50 [10] of the same molecule?
**A.** > 150 µM (not active)

**Q.** And the EC50 [11]?
**A.** 3.53 µM (active)

**Q.** And the IC50 [12]?
**A.** 3.03 µM (active)

**Q.** And the EC50 [13]?
**A.** 17 µM (active)

**Q.** With O=c1ccc2cc(O)c(O)cc2o1 [ESCULETIN] as the molecule, how does the IC50 [14] read?
**A.** > 50 µM (not active)

**Q.** And the AC50 [15]?
**A.** 12.6 µM (inconclusive)

**Q.** And the AC50 [16]?
**A.** 9.72 µM (active)

**Q.** What about the IC50 [17] of the same molecule?
**A.** 25.9 µM (active)

**Q.** And the IC50 [18]?
**A.** > 50 µM (not active)

**Q.** What about the AC50 [19] of the same molecule?
**A.** 15.8 µM (inconclusive)
